Assay results: ChEMBL document CHEMBL1201862, “PubChem BioAssay data set” (2004)
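96-well plates; 48 h exposure; 5 concentrations. Endpoints by linear interpolation between flanking doses. Not reached: highest tested concentration assigned. The concentration for 50% growth inhibition is given as GI50.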 Active and inactive are the calls of the source. Rule as the data show it: active = GI50 up to about 1.1 µM and inactive = higher.

What was measured:
Experiment in all cases: NCI anticancer screen, dose series, 48 h
[1] = system: EKVX
[2] = system: HCT-15
[3] = system: HL-60
[4] = system: HT-29
[5] = system: K562
[6] = system: KM12
[7] = system: LOX IMVI
[8] = system: MOLT-4
[9] = system: OVCAR-4
[10] = system: SF-268
[11] = system: SF-539
[12] = system: SK-MEL-2
[13] = system: SW-620
[14] = system: U-251
[15] = system: UO-31
[16] = system: A498
[17] = system: CAKI-1
[18] = system: Malme-3M
[19] = system: RPMI-8226
[20] = system: SK-OV-3

SMILES | GI50 [1] | GI50 [2] | GI50 [3] | GI50 [4] | GI50 [5] | GI50 [6] | GI50 [7] | GI50 [8] | GI50 [9] | GI50 [10] | GI50 [11] | GI50 [12] | GI50 [13] | GI50 [14] | GI50 [15] | GI50 [16] | GI50 [17] | GI50 [18] | GI50 [19] | GI50 [20]
Cc1cc(C)nc(NS(=O)(=O)c2ccc(NC(=O)c3cccn4c(=O)c5ccccc5nc34)cc2)n1 | 26.1 µM (inactive) | 31 µM | 21.5 µM (inactive) | 40.2 µM (inactive) | 32.1 µM (inactive) | 41.1 µM (inactive) | 29.1 µM (inactive) | 23.8 µM (inactive) | 27.9 µM (inactive) | 51.1 µM (inactive) | 38.5 µM (inactive) | > 100 µM (inactive) | 34.9 µM (inactive) | 37.4 µM (inactive) | 27.5 µM (inactive) |  |  |  |  | 
COc1cc(/C=C/c2ccc(OC)c(OC)c2)oc(=O)c1 | > 116 µM (inactive) | > 250 µM | > 91.6 µM (inactive) | > 250 µM (inactive) | > 250 µM (inactive) | > 250 µM (inactive) | > 250 µM (inactive) | > 250 µM (inactive) | > 250 µM (inactive) | > 170 µM (inactive) | 213 µM (inactive) | > 213 µM (inactive) | > 250 µM (inactive) | 199 µM (inactive) | > 250 µM (inactive) | > 169 µM (inactive) | > 92.3 µM (inactive) | > 250 µM (inactive) | > 250 µM (inactive) | > 250 µM (inactive)
CCCCN1CN2C(=O)C(C(=O)OCC)C(=O)c3sc4nc(SC)nc1c4c32 (stereo unspecified) | 17.9 µM (inactive) | 20 µM | 46.6 µM (inactive) | 19.8 µM (inactive) | 35.5 µM (inactive) | 16.8 µM (inactive) | 20.5 µM (inactive) | 29 µM (inactive) | 18.8 µM (inactive) | 19.9 µM (inactive) | 18.5 µM (inactive) | 19.8 µM (inactive) | 18.4 µM (inactive) | 18.2 µM (inactive) | 21.1 µM (inactive) | 1.53 µM (inactive) | 17.3 µM (inactive) | 15 µM (inactive) | 21.1 µM (inactive) | 17.6 µM (inactive)
O=NN(CCCl)C(=O)N[C@H]1CC[C@@H](O)CC1 | 33.6 µM (inactive) | 21.6 µM | 18.2 µM (inactive) | 60.3 µM (inactive) | 23.6 µM (inactive) | 67.5 µM (inactive) | 26.1 µM (inactive) | 20.6 µM (inactive) | 60.4 µM (inactive) | 13.6 µM (inactive) | 23.3 µM (inactive) | > 100 µM (inactive) | 22.6 µM (inactive) | 20.6 µM (inactive) | 72.4 µM (inactive) | > 100 µM (inactive) | 27.5 µM (inactive) | 24.8 µM (inactive) | 14 µM (inactive) | > 100 µM (inactive)
CCOC(=O)c1ccc(C)c(/N=N/N(C)C)c1 | > 100 µM (inactive) | > 100 µM | > 100 µM (inactive) | > 100 µM (inactive) | > 100 µM (inactive) | > 100 µM (inactive) | > 100 µM (inactive) | > 100 µM (inactive) | > 100 µM (inactive) | 82.8 µM (inactive) | > 100 µM (inactive) | > 100 µM (inactive) | > 100 µM (inactive) | > 100 µM (inactive) | 79.8 µM (inactive) | > 100 µM (inactive) | > 100 µM (inactive) | > 100 µM (inactive) | > 100 µM (inactive) | > 100 µM (inactive)
COc1cccc(N2C(Cl)C(=O)C2c2c[nH]c3ccccc23)c1 (stereo unspecified) | > 100 µM (inactive) |  | > 100 µM (inactive) | > 100 µM (inactive) | > 100 µM (inactive) | > 100 µM (inactive) |  | > 100 µM (inactive) | > 100 µM (inactive) | > 100 µM (inactive) |  | > 100 µM (inactive) | > 100 µM (inactive) | > 100 µM (inactive) | 42.8 µM (inactive) |  |  | 80.9 µM (inactive) | > 100 µM (inactive) | > 100 µM (inactive)
CC(C)NC(=O)OCc1c(CO)c2c(n1C)-c1ccccc1CC2 | 69.2 µM (inactive) | 23.3 µM | 16.4 µM (inactive) | 24.5 µM (inactive) | 15.2 µM (inactive) | 34.4 µM (inactive) | 25.4 µM (inactive) | 14.3 µM (inactive) | 26.3 µM (inactive) | 36.1 µM (inactive) | 23.6 µM (inactive) | 37.1 µM (inactive) | 20 µM (inactive) | 27 µM (inactive) | 23.7 µM (inactive) | 55.5 µM (inactive) | 15.8 µM (inactive) | 23.9 µM (inactive) | 17.7 µM (inactive) | 55.1 µM (inactive)
COc1ccc(CN/C=N/C(C#N)=C(\N)C#N)cc1OC | > 100 µM (inactive) | > 100 µM | > 100 µM (inactive) | > 100 µM (inactive) | > 100 µM (inactive) | > 100 µM (inactive) | > 100 µM (inactive) | > 100 µM (inactive) | > 100 µM (inactive) | > 100 µM (inactive) | > 100 µM (inactive) | > 100 µM (inactive) | > 100 µM (inactive) | > 100 µM (inactive) | 65 µM (inactive) | 54.8 µM (inactive) | > 100 µM (inactive) | > 100 µM (inactive) | > 100 µM (inactive) | > 100 µM (inactive)
CCOC(=O)Cn1c(=O)c(C)cn(COCCO)c1=O | > 100 µM (inactive) |  | > 100 µM (inactive) | > 100 µM (inactive) | > 100 µM (inactive) | > 100 µM (inactive) | > 100 µM (inactive) | > 100 µM (inactive) | > 100 µM (inactive) | > 100 µM (inactive) | > 100 µM (inactive) | > 100 µM (inactive) | > 100 µM (inactive) | > 100 µM (inactive) | > 100 µM (inactive) | > 100 µM (inactive) | > 100 µM (inactive) | > 100 µM (inactive) | > 100 µM (inactive) | 
Cc1ccc(S(=O)(=O)NC(=N)N(C)N=O)cc1 | 85.9 µM (inactive) | > 100 µM | > 100 µM (inactive) | > 100 µM (inactive) | > 100 µM (inactive) | > 100 µM (inactive) | > 100 µM (inactive) | > 100 µM (inactive) | > 100 µM (inactive) | > 100 µM (inactive) | > 100 µM (inactive) | > 100 µM (inactive) | > 100 µM (inactive) | > 100 µM (inactive) | > 100 µM (inactive) | 71.4 µM (inactive) | > 100 µM (inactive) | > 100 µM (inactive) | > 100 µM (inactive) | 18.5 µM (inactive)
Cc1ccc(C2COc3cc(O)c(O)cc3C2)cc1 (stereo unspecified) | 20.4 µM (inactive) | 15 µM | 1.64 µM (inactive) | 29.7 µM (inactive) | 7.28 µM (inactive) | 22.4 µM (inactive) | 12.1 µM (inactive) | 4.48 µM (inactive) | 20.4 µM (inactive) | 13.2 µM (inactive) | 22.4 µM (inactive) | 19.2 µM (inactive) | 11.1 µM (inactive) | 17.7 µM (inactive) | 30 µM (inactive) | 86.7 µM (inactive) | 15.9 µM (inactive) | 18.7 µM (inactive) | 7.11 µM (inactive) | 139 µM (inactive)
CN(C)CC(C)(C)/C(=N\Nc1ccccc1)c1ccccc1 | 47.2 µM (inactive) | 16.2 µM | 21 µM (inactive) | 35.9 µM (inactive) | 28.1 µM (inactive) | 43.3 µM (inactive) | 14.6 µM (inactive) | 46.3 µM (inactive) | 45.4 µM (inactive) | 31.8 µM (inactive) | 24.6 µM (inactive) | 58.1 µM (inactive) | 29.1 µM (inactive) | 37.4 µM (inactive) | 12.3 µM (inactive) | 82.8 µM (inactive) |  | 46.8 µM (inactive) | 10.3 µM (inactive) | 21.8 µM (inactive)
O=C(Nc1ccccc1)c1nn(-c2cc(S(=O)(=O)O)c([N+](=O)[O-])cc2Cl)[n+](-c2cc(S(=O)(=O)[O-])c([N+](=O)[O-])cc2Cl)n1 | > 100 µM (inactive) | > 100 µM | 40.8 µM (inactive) | > 100 µM (inactive) | > 100 µM (inactive) | > 100 µM (inactive) | 38.3 µM (inactive) | > 100 µM (inactive) | > 100 µM (inactive) | > 100 µM (inactive) | > 100 µM (inactive) | > 100 µM (inactive) | > 100 µM (inactive) | > 100 µM (inactive) | > 100 µM (inactive) |  | > 100 µM (inactive) | > 100 µM (inactive) | > 100 µM (inactive) | > 100 µM (inactive)
CCCCS(=N)(=O)CC[C@H](N)C(=O)O (stereo partly specified) [BUTHIONINE SULFOXIME] | 1450 µM (inactive) | 4250 µM | 665 µM (inactive) | > 5000 µM (inactive) | > 5000 µM (inactive) | > 5000 µM (inactive) | 237 µM (inactive) | 2550 µM (inactive) | 2290 µM (inactive) | 4260 µM (inactive) | 4910 µM (inactive) | > 5000 µM (inactive) | > 5000 µM (inactive) | > 5000 µM (inactive) | 2480 µM (inactive) | 4820 µM (inactive) | 3400 µM (inactive) | > 5000 µM (inactive) | 2460 µM (inactive) | > 5000 µM (inactive)
CCCCCCCCCCCCCCCCSCC(COC)COP(=O)([O-])OCC[N+](C)(C)C (stereo unspecified) [ILMOFOSINE] | 14.4 µM (inactive) | 2.88 µM | 1.55 µM (inactive) | 3.09 µM (inactive) | 13.6 µM (inactive) | 0.977 µM (active) | 5.41 µM (inactive) | 2.41 µM (inactive) | 4.06 µM (inactive) | 7.57 µM (inactive) | 16.1 µM (inactive) | 15.5 µM (inactive) | 5.78 µM (inactive) | 1.99 µM (inactive) | 7.69 µM (inactive) | 6.31 µM (inactive) | 3.52 µM (inactive) | 15.5 µM (inactive) | 2.49 µM (inactive) | 15.2 µM (inactive)
